In patent US7893266B2, “Detection of cancer cells in vitro using sigma-2 receptor ligands as radiotracers” (Washington University, priority 2003, dated 2011):

Assays:
[1] = system: EMT-6 breast tumor xenograft; assay: MicroPET imaging studies in mice bearing EMT-6 breast tumor; assay type: in vivo, Balb-c mice
Description: The no-carrier-added (NCA) study is on the left and the sigma receptor blocking study (1 mg/kg, i.v. YUN-143) is shown on the right.
(§1) This compound was studied in mature Balb/C mice that were implanted with EMT-6 mammary tumors. The mice were implanted in the nape of the neck 7 days prior to the study. The biodistribution study consisted of three groups: 1 hr low dose (≈6 μCi), 4 hr low dose and a 4 hr high dose (≈150 μCi). The % ID/g at 1 hr for tumor, brain, fat, blood and liver were 4.0±0.4, 0.25±0.02, 1.1±0.4, 2.1±0.3 and 5.4±0.4, respectively. At 4 hr for the low dose animals the values decreased to 1.2±0.2, 0.15±0.02, 0.3±0.2, 0.82±0.08 and 1.3±0.2, respectively. […] The activity injected into the high dose animals was enough to perform microPET® imaging studies. […] This initial study has shown that this σ2 receptor compound has a high uptake into EMT-6 mammary tumors and can be imaged non-invasively. (MicroPET® is a dedicated PET scanner designed for high resolution imaging of small laboratory animals. It is available from Concorde Microsystems, Inc. 10427 Cogdill Rd, Suite 500 Knoxville, Tenn. 37932 USA.)
MicroPET® Imaging Studies—The inventors conducted microPET® imaging studies with [^76Br]6 in Balb-c mice bearing EMT-6 breast tumor xenografts to model a living mammal afflicted with cancer.

EMT-6 mammary tumors [2] = assay: Biodistribution study of [76Br]6 (Example 4), low and high dose groups; assay type: in vivo, Balb/C mice
From the text: as §1

EMT-6 mammary tumors [3] = assay: Biodistribution in EMT-6 BALB/C mice; assay type: in vivo
Description: As used herein, the term “tumor:background ratio” (i.e., tumor:fat ratio, tumor:muscle ratio, tumor:lung ratio, tumor:blood ratio) refers to the % injected dose/g tissue of the radiotracer in the tumor divided by the % injected dose/g […] in the background tissue (i.e., fat, muscle, lung, blood).
B. Biodistribution Studies of ^11C analogs in Tumor-Bearing Mice. Biodistribution studies were conducted in mature Balb/c mice that were implanted with EMT-6 mammary tumors identified herein as EMT-6 BALB/C mice to create laboratory tumor-bearing mice. The mice were implanted in the scapular region seven days prior to the study. Animals were injected with 100-150 μCi of the ^11C-labeled radiotracer and the animals were sacrificed at 5, 30, and 60 min post-i.v. injection of the radiotracer.
A series of biodistribution studies in tumor-bearing mice were also conducted with [^76Br]8, [^76Br]6, [^125I]8i, and [^125I]6i.

[4] = biological target: T1, σ2 receptors in the breast tumors (Mus musculus, UniProt Q8VD00); assay: In vivo blocking studies with YUN 143 in tumor-bearing mice; conditions: blocking agent YUN 143 (1 mg/kg, i.v.); time point of highest % I.D./gram tumor
T1 construct: mature Balb/c mice that were implanted with EMT-6 mammary tumors; from tissue; host or cells: EMT-6 mammary tumours in Balb/c mice, in vivo
T1 sequence (Q8VD00 1-176): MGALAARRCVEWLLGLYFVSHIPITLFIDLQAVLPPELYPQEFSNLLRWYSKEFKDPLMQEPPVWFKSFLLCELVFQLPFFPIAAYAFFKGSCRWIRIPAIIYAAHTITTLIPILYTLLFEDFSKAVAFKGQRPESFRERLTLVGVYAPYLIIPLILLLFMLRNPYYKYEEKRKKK
From the text: The blocking agent was YUN 143, which has a high affinity for σ1 and σ2 receptors. Animals were sacrificed at the time point displaying the highest % I.D./gram tumor.
The inventors then conducted blocking studies in order to confirm that the radiotracer labeled σ2 receptors in the breast tumors. […] We have previously reported that [^18F]YUN 143 labels σ1 and σ2 receptors in breast tumor xenografts (Mach et al., 2001).

% ID/g for the 4 hr high dose animals versus low dose (EMT-6 mammary tumors [2]; 4 hr, high dose (≈150 μCi)): not significantly different
% ID/g blood (EMT-6 mammary tumors [2]; 1 hr, low dose (≈6 μCi)): 2.1±0.3 % ID/g
% ID/g blood (EMT-6 mammary tumors [2]; 4 hr, low dose): 0.82±0.08 % ID/g
% ID/g brain (EMT-6 mammary tumors [2]; 1 hr, low dose (≈6 μCi)): 0.25±0.02 % ID/g
% ID/g brain (EMT-6 mammary tumors [2]; 4 hr, low dose): 0.15±0.02 % ID/g
% ID/g fat (EMT-6 mammary tumors [2]; 1 hr, low dose (≈6 μCi)): 1.1±0.4 % ID/g
% ID/g fat (EMT-6 mammary tumors [2]; 4 hr, low dose): 0.3±0.2 % ID/g
% ID/g liver (EMT-6 mammary tumors [2]; 1 hr, low dose (≈6 μCi)): 5.4±0.4 % ID/g
% ID/g liver (EMT-6 mammary tumors [2]; 4 hr, low dose): 1.3±0.2 % ID/g
% ID/g tumor (EMT-6 mammary tumors [2]; 1 hr, low dose (≈6 μCi)): 4.0±0.4 % ID/g
% ID/g tumor (EMT-6 mammary tumors [2]; 4 hr, low dose): 1.2±0.2 % ID/g
ratio Tumor:blood (EMT-6 mammary tumors [3]; 5 min): 2.25 ± 0.28
ratio Tumor:fat (EMT-6 mammary tumors [3]; 5 min): 1.30 ± 0.24
ratio Tumor:heart (EMT-6 mammary tumors [3]; 5 min): 0.65 ± 0.07
ratio Tumor:lung (EMT-6 mammary tumors [3]; 5 min): 0.19 ± 0.02
ratio Tumor:muscle (EMT-6 mammary tumors [3]; 5 min): 1.32 ± 0.16
ratio Tumor:blood (EMT-6 mammary tumors [3]; 30 min): 2.41 ± 0.08
ratio Tumor:fat (EMT-6 mammary tumors [3]; 30 min): 2.35 ± 0.34
ratio Tumor:heart (EMT-6 mammary tumors [3]; 30 min): 2.48 ± 0.17
ratio Tumor:lung (EMT-6 mammary tumors [3]; 30 min): 0.93 ± 0.09
ratio Tumor:muscle (EMT-6 mammary tumors [3]; 30 min): 3.70 ± 1.06
ratio Tumor:blood (EMT-6 mammary tumors [3]; 1 hour): 2.53 ± 0.54
ratio Tumor:fat (EMT-6 mammary tumors [3]; 1 hour): 5.09 ± 1.39
ratio Tumor:heart (EMT-6 mammary tumors [3]; 1 hour): 3.72 ± 0.72
ratio Tumor:lung (EMT-6 mammary tumors [3]; 1 hour): 1.64 ± 0.30
ratio Tumor:muscle (EMT-6 mammary tumors [3]; 1 hour): 6.76 ± 2.09
ratio Tumor:blood (EMT-6 mammary tumors [3]; 2 hour): 3.79 ± 0.99
ratio Tumor:fat (EMT-6 mammary tumors [3]; 2 hour): 7.97 ± 1.95
ratio Tumor:heart (EMT-6 mammary tumors [3]; 2 hour): 5.77 ± 0.60
ratio Tumor:lung (EMT-6 mammary tumors [3]; 2 hour): 2.30 ± 0.13
ratio Tumor:muscle (EMT-6 mammary tumors [3]; 2 hour): 8.81 ± 0.91
ratio Tumor:blood (EMT-6 mammary tumors [3]; 4 hour): 3.17 ± 0.58
ratio Tumor:fat (EMT-6 mammary tumors [3]; 4 hour): 20.69 ± 10.77
ratio Tumor:heart (EMT-6 mammary tumors [3]; 4 hour): 6.24 ± 1.28
ratio Tumor:lung (EMT-6 mammary tumors [3]; 4 hour): 2.36 ± 0.46
ratio Tumor:muscle (EMT-6 mammary tumors [3]; 4 hour): 9.48 ± 2.14
% ID per gram blood (EMT-6 mammary tumors [3]; 5 min): 2.12 ± 0.20 % ID per gram
% ID per gram blood (EMT-6 mammary tumors [3]; 30 min): 2.20 ± 0.24 % ID per gram
% ID per gram blood (EMT-6 mammary tumors [3]; 1 hour): 1.60 ± 0.22 % ID per gram
% ID per gram blood (EMT-6 mammary tumors [3]; 2 hour): 0.46 ± 0.07 % ID per gram
% ID per gram blood (EMT-6 mammary tumors [3]; 4 hour): 0.21 ± 0.03 % ID per gram
% ID per gram bone (EMT-6 mammary tumors [3]; 5 min): 3.10 ± 0.67 % ID per gram
% ID per gram bone (EMT-6 mammary tumors [3]; 30 min): 2.76 ± 0.58 % ID per gram
% ID per gram bone (EMT-6 mammary tumors [3]; 1 hour): 1.38 ± 0.09 % ID per gram
% ID per gram bone (EMT-6 mammary tumors [3]; 2 hour): 0.56 ± 0.20 % ID per gram
% ID per gram bone (EMT-6 mammary tumors [3]; 4 hour): 0.12 ± 0.03 % ID per gram
% ID per gram brain (EMT-6 mammary tumors [3]; 5 min): 1.60 ± 0.15 % ID per gram
% ID per gram brain (EMT-6 mammary tumors [3]; 30 min): 0.41 ± 0.06 % ID per gram
% ID per gram brain (EMT-6 mammary tumors [3]; 1 hour): 0.17 ± 0.02 % ID per gram
% ID per gram brain (EMT-6 mammary tumors [3]; 2 hour): 0.05 ± 0.00 % ID per gram
% ID per gram brain (EMT-6 mammary tumors [3]; 4 hour): 0.03 ± 0.00 % ID per gram
% ID per gram fat (EMT-6 mammary tumors [3]; 5 min): 3.78 ± 0.97 % ID per gram
% ID per gram fat (EMT-6 mammary tumors [3]; 30 min): 2.27 ± 0.16 % ID per gram
% ID per gram fat (EMT-6 mammary tumors [3]; 1 hour): 0.81 ± 0.16 % ID per gram
% ID per gram fat (EMT-6 mammary tumors [3]; 2 hour): 0.22 ± 0.05 % ID per gram
% ID per gram fat (EMT-6 mammary tumors [3]; 4 hour): 0.04 ± 0.02 % ID per gram
% ID per gram heart (EMT-6 mammary tumors [3]; 5 min): 7.31 ± 0.70 % ID per gram
% ID per gram heart (EMT-6 mammary tumors [3]; 30 min): 2.15 ± 0.30 % ID per gram
% ID per gram heart (EMT-6 mammary tumors [3]; 1 hour): 1.08 ± 0.07 % ID per gram
% ID per gram heart (EMT-6 mammary tumors [3]; 2 hour): 0.30 ± 0.03 % ID per gram
% ID per gram heart (EMT-6 mammary tumors [3]; 4 hour): 0.11 ± 0.02 % ID per gram
% ID per gram kidney (EMT-6 mammary tumors [3]; 5 min): 31.20 ± 2.92 % ID per gram
% ID per gram kidney (EMT-6 mammary tumors [3]; 30 min): 18.51 ± 2.66 % ID per gram
% ID per gram kidney (EMT-6 mammary tumors [3]; 1 hour): 10.81 ± 1.72 % ID per gram
% ID per gram liver (EMT-6 mammary tumors [3]; 5 min): 10.99 ± 0.29 % ID per gram
% ID per gram liver (EMT-6 mammary tumors [3]; 30 min): 8.85 ± 0.52 % ID per gram
% ID per gram liver (EMT-6 mammary tumors [3]; 1 hour): 4.58 ± 0.36 % ID per gram
% ID per gram lung (EMT-6 mammary tumors [3]; 5 min): 24.64 ± 2.74 % ID per gram
% ID per gram lung (EMT-6 mammary tumors [3]; 30 min): 5.81 ± 1.12 % ID per gram
% ID per gram lung (EMT-6 mammary tumors [3]; 1 hour): 2.45 ± 0.17 % ID per gram
% ID per gram lung (EMT-6 mammary tumors [3]; 2 hour): 0.74 ± 0.04 % ID per gram
% ID per gram muscle (EMT-6 mammary tumors [3]; 5 min): 3.62 ± 0.27 % ID per gram
% ID per gram muscle (EMT-6 mammary tumors [3]; 30 min): 1.54 ± 0.49 % ID per gram
% ID per gram muscle (EMT-6 mammary tumors [3]; 1 hour): 0.61 ± 0.11 % ID per gram
% ID per gram muscle (EMT-6 mammary tumors [3]; 2 hour): 0.20 ± 0.03 % ID per gram
% ID per gram muscle (EMT-6 mammary tumors [3]; 4 hour): 0.07 ± 0.01 % ID per gram
% ID per gram tumor (EMT-6 mammary tumors [3]; 5 min): 4.78 ± 0.78 % ID per gram
% ID per gram tumor (EMT-6 mammary tumors [3]; 30 min): 5.31 ± 0.62 % ID per gram
% ID per gram tumor (EMT-6 mammary tumors [3]; 1 hour): 3.98 ± 0.58 % ID per gram
% ID per gram tumor (EMT-6 mammary tumors [3]; 2 hour): 1.71 ± 0.17 % ID per gram
% ID per gram tumor (EMT-6 mammary tumors [3]; 4 hour): 0.68 ± 0.15 % ID per gram
Compound: COc1cc2c(cc1OC)CN(CCCCNC(=O)c1cc([76Br])cc(OC)c1OC)CC2 [[^76Br]6]
microPET imaging: identification of tumors ([1]; high dose animals, 1 and 2 hr, three animals): tumors were clearly identified
microPET imaging: tumor uptake, NCA study versus sigma receptor blocking study ([1]; no-carrier-added versus blocking with YUN-143 1 mg/kg i.v.): high uptake of the radiotracer in the NCA study (left image), which can be blocked with a known sigma receptor ligand
in vivo blocking study result [4]: consistent with the labeling of σ2 receptors in vivo
